According to US8192962B2, “Processes for detecting toxic substances” (Daikin Industries, Ltd., priority 2001, dated 2012):

System: Unknown protein yeast genes
Test: DNA chip mRNA expression in yeast, unknown protein yeast genes (Table 1)
Type: cell-based, Saccharomyces cerevisiae S288C
In short: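 Cells were grown at 25° C. in YPD, treated at logarithmic phase for 2 h with a chemical at a concentration inhibiting growth but not causing death, and compared with untreated cultures. Labeled cDNA was hybridized to a DNA chip carrying all yeast genes, and the expression ratio was taken from scanner fluorescence.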

Structure (SMILES): [Cl][Pb][Cl] [(4), PbCl2]
- The level of expressed mRNA in the presence of chemical substance/The level of expressed mRNA in the absence of chemical substance (yeast gene YKL195W, incubated two hours with chemical substance): 1.1
- The level of expressed mRNA in the presence of chemical substance/The level of expressed mRNA in the absence of chemical substance (yeast gene YKR091W, incubated two hours with chemical substance): 3.5
- The level of expressed mRNA in the presence of chemical substance/The level of expressed mRNA in the absence of chemical substance (yeast gene YLR054C, incubated two hours with chemical substance): 2.4
- The level of expressed mRNA in the presence of chemical substance/The level of expressed mRNA in the absence of chemical substance (yeast gene YLR149C, incubated two hours with chemical substance): 2.3
- The level of expressed mRNA in the presence of chemical substance/The level of expressed mRNA in the absence of chemical substance (yeast gene YLR152C, incubated two hours with chemical substance): 0.9
- The level of expressed mRNA in the presence of chemical substance/The level of expressed mRNA in the absence of chemical substance (yeast gene YLR194C, incubated two hours with chemical substance): 3.6
- The level of expressed mRNA in the presence of chemical substance/The level of expressed mRNA in the absence of chemical substance (yeast gene YLR324W, incubated two hours with chemical substance): 1.0
- The level of expressed mRNA in the presence of chemical substance/The level of expressed mRNA in the absence of chemical substance (yeast gene YLR350W, incubated two hours with chemical substance): 2.3
- The level of expressed mRNA in the presence of chemical substance/The level of expressed mRNA in the absence of chemical substance (yeast gene YLR387C, incubated two hours with chemical substance): 0.6
- The level of expressed mRNA in the presence of chemical substance/The level of expressed mRNA in the absence of chemical substance (yeast gene YLR460C): 1.1
- The level of expressed mRNA in the presence of chemical substance/The level of expressed mRNA in the absence of chemical substance (yeast gene YML117W, incubated two hours with chemical substance): 1.6
- The level of expressed mRNA in the presence of chemical substance/The level of expressed mRNA in the absence of chemical substance (yeast gene YMR009W, incubated two hours with chemical substance): 1.9
- The level of expressed mRNA in the presence of chemical substance/The level of expressed mRNA in the absence of chemical substance (yeast gene YMR067C, incubated two hours with chemical substance): 0.4
- The level of expressed mRNA in the presence of chemical substance/The level of expressed mRNA in the absence of chemical substance (yeast gene YMR090W): 3.5
- The level of expressed mRNA in the presence of chemical substance/The level of expressed mRNA in the absence of chemical substance (yeast gene YMR095C, incubated two hours with chemical substance): 1.0
- The level of expressed mRNA in the presence of chemical substance/The level of expressed mRNA in the absence of chemical substance (yeast gene YMR097C, incubated two hours with chemical substance): 1.6
- The level of expressed mRNA in the presence of chemical substance/The level of expressed mRNA in the absence of chemical substance (yeast gene YMR102C, incubated two hours with chemical substance): 0.8
- The level of expressed mRNA in the presence of chemical substance/The level of expressed mRNA in the absence of chemical substance (yeast gene YMR107W, incubated two hours with chemical substance): 18.4
- The level of expressed mRNA in the presence of chemical substance/The level of expressed mRNA in the absence of chemical substance (yeast gene YMR180C, incubated two hours with chemical substance): 1.3
- The level of expressed mRNA in the presence of chemical substance/The level of expressed mRNA in the absence of chemical substance (yeast gene YMR184W, incubated two hours with chemical substance): 1.1
- The level of expressed mRNA in the presence of chemical substance/The level of expressed mRNA in the absence of chemical substance (yeast gene YMR191W, incubated two hours with chemical substance): 1.6
- The level of expressed mRNA in the presence of chemical substance/The level of expressed mRNA in the absence of chemical substance (yeast gene YMR295C, incubated two hours with chemical substance): 1.6
- The level of expressed mRNA in the presence of chemical substance/The level of expressed mRNA in the absence of chemical substance (yeast gene YMR316W, incubated two hours with chemical substance): 1.9
- The level of expressed mRNA in the presence of chemical substance/The level of expressed mRNA in the absence of chemical substance (yeast gene YNL044W, incubated two hours with chemical substance): 1.3
- The level of expressed mRNA in the presence of chemical substance/The level of expressed mRNA in the absence of chemical substance (yeast gene YNL074C, incubated two hours with chemical substance): 1.2
- The level of expressed mRNA in the presence of chemical substance/The level of expressed mRNA in the absence of chemical substance (yeast gene YNL092W, incubated two hours with chemical substance): 1.8
- The level of expressed mRNA in the presence of chemical substance/The level of expressed mRNA in the absence of chemical substance (yeast gene YNL115C, incubated two hours with chemical substance): 1.4
- The level of expressed mRNA in the presence of chemical substance/The level of expressed mRNA in the absence of chemical substance (yeast gene YNL156C, incubated two hours with chemical substance): 1.3
- The level of expressed mRNA in the presence of chemical substance/The level of expressed mRNA in the absence of chemical substance (yeast gene YNL234W, incubated two hours with chemical substance): 1.8
- The level of expressed mRNA in the presence of chemical substance/The level of expressed mRNA in the absence of chemical substance (yeast gene YNL281W, incubated two hours with chemical substance): 1.4
- The level of expressed mRNA in the presence of chemical substance/The level of expressed mRNA in the absence of chemical substance (yeast gene YNL305C, incubated two hours with chemical substance): 1.4
- The level of expressed mRNA in the presence of chemical substance/The level of expressed mRNA in the absence of chemical substance (yeast gene YNR068C, incubated two hours with chemical substance): 2.6
- The level of expressed mRNA in the presence of chemical substance/The level of expressed mRNA in the absence of chemical substance (yeast gene YOL032W, incubated two hours with chemical substance): 1.3
- The level of expressed mRNA in the presence of chemical substance/The level of expressed mRNA in the absence of chemical substance (yeast gene YOL036W, incubated two hours with chemical substance): 0.8
- The level of expressed mRNA in the presence of chemical substance/The level of expressed mRNA in the absence of chemical substance (yeast gene YOL047C, incubated two hours with chemical substance): 2.5
- The level of expressed mRNA in the presence of chemical substance/The level of expressed mRNA in the absence of chemical substance (yeast gene YOL071W, incubated two hours with chemical substance): 2.0
- The level of expressed mRNA in the presence of chemical substance/The level of expressed mRNA in the absence of chemical substance (yeast gene YOL082W, incubated two hours with chemical substance): 2.1
- The level of expressed mRNA in the presence of chemical substance/The level of expressed mRNA in the absence of chemical substance (yeast gene YOL083W, incubated two hours with chemical substance): 2.8
- The level of expressed mRNA in the presence of chemical substance/The level of expressed mRNA in the absence of chemical substance (yeast gene YOL117W, incubated two hours with chemical substance): 1.4
- The level of expressed mRNA in the presence of chemical substance/The level of expressed mRNA in the absence of chemical substance (yeast gene YOL131W, incubated two hours with chemical substance): 1.0
- The level of expressed mRNA in the presence of chemical substance/The level of expressed mRNA in the absence of chemical substance (yeast gene YOL150C): 0.9
- The level of expressed mRNA in the presence of chemical substance/The level of expressed mRNA in the absence of chemical substance (yeast gene YOL162W, incubated two hours with chemical substance): 1.4
- The level of expressed mRNA in the presence of chemical substance/The level of expressed mRNA in the absence of chemical substance (yeast gene YOR019W, incubated two hours with chemical substance): 4.7
- The level of expressed mRNA in the presence of chemical substance/The level of expressed mRNA in the absence of chemical substance (yeast gene YOR197W, incubated two hours with chemical substance): 1.4
- The level of expressed mRNA in the presence of chemical substance/The level of expressed mRNA in the absence of chemical substance (yeast gene YPL087W, incubated two hours with chemical substance): 7.3
- The level of expressed mRNA in the presence of chemical substance/The level of expressed mRNA in the absence of chemical substance (yeast gene YPL196W, incubated two hours with chemical substance): 1.7
- The level of expressed mRNA in the presence of chemical substance/The level of expressed mRNA in the absence of chemical substance (yeast gene YPL206C, incubated two hours with chemical substance): 1.9
- The level of expressed mRNA in the presence of chemical substance/The level of expressed mRNA in the absence of chemical substance (yeast gene YPL222W, incubated two hours with chemical substance): 1.3
- The level of expressed mRNA in the presence of chemical substance/The level of expressed mRNA in the absence of chemical substance (yeast gene YPR023C, incubated two hours with chemical substance): 0.8
- The level of expressed mRNA in the presence of chemical substance/The level of expressed mRNA in the absence of chemical substance (yeast gene YPR151C, incubated two hours with chemical substance): 4.1
